Consider five compounds from article PMC10224427, “A Novel Flow Cytometry-Based Assay for the Identification of HCN4 CNBD Ligands” (Pharmaceuticals, 2023).

Several values for one entry are separate records, joined by “and”; a condition that tells them apart may be missing. Equal entries are not always repeated. Entries after “also recorded” stand apart in the source; their conditions may differ. Where two headings read alike, the source gives them in different places.

For orientation: IC50 means the point on the concentration scale where inhibition reaches its midpoint. The Ki is the dissociation constant of the complex between target and ligand, obtained from inhibition or displacement. By Kd is commonly meant a measure of binding affinity in units of concentration.

Assay [1] has as its target T1, HCN4 C-Linker-CNBD (Homo sapiens, UniProt Q9Y3Q4).
T1 construct: the passenger domain human HCN4 C-Linker-CNBD; CtxB signal peptide (N, cleaved yes); His-Tag (N); made in house; host or cells: E. coli BL21 (OmpT-deficient)
T1 sequence (Q9Y3Q4 521-723 limits assumed): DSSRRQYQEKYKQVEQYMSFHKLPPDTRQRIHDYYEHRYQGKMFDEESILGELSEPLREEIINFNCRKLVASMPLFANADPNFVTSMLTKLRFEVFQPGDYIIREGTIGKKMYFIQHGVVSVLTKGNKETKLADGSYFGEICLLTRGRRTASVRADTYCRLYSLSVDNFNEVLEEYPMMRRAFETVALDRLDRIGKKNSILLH
Description: Competitive binding assay, displacement of 8-Fluo-cAMP, flow cytometry.

Assay [2] deals with purified HCN4 C-Linker-CNBD. To be noted: ITC; cited from earlier work.
Assay [3] deals with purified HCN4 C-Linker-CNBD. The note with it: SPR; cited from earlier work. Background: SPR reads the build-up and loss of mass on a sensor chip optically.
The target in assay [4] is HCN4 MBP-C-Linker-CNBD fusion protein. Also noted: method as in PMID 24605759. To be noted: ITC; cited from earlier work. For orientation: In ITC the heat of successive injections is recorded.
Assay [5] addresses T1, HCN4 C-Linker-CNBD. The assay is described as follows: Flow cytometry-based ligand-binding assay, 8-Fluo-cAMP on E. coli surface-displayed protein. For orientation: Flow cytometry measures light scatter and fluorescence of single cells or particles in a stream.
Assay [6] has as its target maltose-binding protein (MBP) (Escherichia coli, UniProt P0AEX9). To be noted: up to 4 µM 8-Fluo-cAMP.
Assay [7] addresses purified HCN4 MBP-C-Linker-CNBD fusion protein. To be noted: FP, cited from earlier work.
The target of assay [8] is purified HCN4 C-Linker-CNBD. The note with it: cited from earlier work.
[9] abbreviates: 50 nM 8-Fluo-cAMP, 100 µM competitor.
The mark [10] stands for this setting: ref 47, read-out: binding affinity (Kd).

`COc1cc2c(cc1OC)CC(=O)N(CCCN(C)C[C@H]1Cc3cc(OC)c(OC)cc31)CC2` [ivabradine, Ivabradine]: the “effect on 8-Fluo-cAMP binding to the CNBD (mFI)” value (from here on “effect on 8-Fluo-cAMP binding”) in assay [1] (setting [9]) is reported as “no impact on ligand binding; also recorded: no influence”.
On to `Nc1ncnc2c1ncn2C1OC2COP(=O)(O)OC2C1O` (stereo not drawn) [cAMP, Adenosine-3′,5′-cyclic monophosphate], for which the “effect on 8-Fluo-cAMP binding” value in assay [1] was “decreased mFI”. Moreover, the concentration for half-maximal inhibition (IC50) in assay [1] (IC50 for 8-Fluo-cAMP binding) is 13000 nM and 16000 nM and 23000 nM and 27000 nM. Further, the Ki in assay [1] (Ki determined graphically) was 11700 nM; in assay [1] (calculated Ki), 8500 ± 2000 nM. The Kd in assay [2] was 800 nM; in assay [3] it was 1500 nM.
`NCC1(CC(=O)O)CCCCC1` [gabapentin, Gabapentin]: in assay [1] (setting [9]), the “effect on 8-Fluo-cAMP binding” value was “no influence; also recorded: no impact”.
For the compound `Nc1ncnc2c1ccn2[C@@H]1O[C@@H]2COP(=O)(O)O[C@H]2[C@H]1O` [7-CH-cAMP, 7-Deazaadenosine-3,5′-cyclic monophosphate], the IC50 in assay [1] (50 nM 8-Fluo-cAMP, read-out: IC50 for 8-Fluo-cAMP binding) worked out at 230 ± 41 nM. In addition, the Ki in assay [1] (50 nM 8-Fluo-cAMP, read-out: inhibitory constant (Ki), calculated) is 159 ± 29 nM. Also, in assay [4], the Kd was 30 nM.
For `Nc1ncnc2c1nc(SCCNC(=S)Nc1ccc(-c3c4ccc(=O)cc-4oc4cc(O)ccc34)c(C(=O)O)c1)n2[C@@H]1O[C@@H]2COP(=O)(O)O[C@H]2[C@H]1O` [8-Fluo-cAMP, 8-(2-[Fluoresceinyl]aminoethylthio)adenosine-3′,5′-cyclic monophosphate], the “concentration at which saturation of binding is attained” value in assay [5] (mFI of cells displaying HCN4 C-Linker-CNBD) was “around 500 nM”. Also, the Kd is 173 ± 46 nM in assay [5] (surface-displayed HCN4 C-Linker-CNBD on E. coli, 1 nM-4 µM ligand, 30 min, 30 °C, read-out: dissociation constant (Kd)); 189 nM in assay [7] (ref 35, read-out: binding affinity (Kd)); 111 nM in assay [7] (setting [10]); 280 nM in assay [8] (ref 9, read-out: binding affinity (Kd)); 167 nM in assay [8] (setting [10]). Besides, the “unspecific binding to surface-displayed MBP (mFI)” value in assay [6] is recorded as “only a marginal increase in mFI; also recorded: no unspecific binding”.
